This assay concerns Human hepatic carcinoma SMMC-7721 cell line. Kind of assay: Inhibitory effect on growth of human hepatoma SMMC-7721 xenografts in nude mice (tumor weight / tumor volume). The format is in vivo, BALB/c nude mouse. The conditions noted are these: SMMC-7721 xenograft in BALB/c nude mice, n = 6 per group, i.v. for 21 days, tumors weighed the next day; (W − Wt)/W versus normal saline control; Taxol 10 mg/kg twice a week; HM-3 3 mg/(kg·d) twice a day; ALD-mPEG5k-HM-3 11.4 mg/(kg·d) once a day; ALD-mPEG10k-HM-3 and SC-mPEG10k-HM-3 19.9 mg/(kg·2d) every two days; SC-mPEG20k-HM-3 36.7 mg/(kg·2d) every two days (dose as total PEG conjugate). As for the experimental part: Human hepatic carcinoma SMMC-7721 cell line was purchased from American type Cell Culture (ATCC, Shanghai, China) and maintained in Dulbecco’s modified Eagle’s medium (DMEM) with 10% fetal bovine serum and antibiotics. BALB/c nude female mouse (SPF grade, 4–5 w, 20.9 ± 0.492 g) were purchased from the Shanghai Laboratory Animal Center of the Chinese Academy of Sciences.
SMMC-7721 cells were cultured in DMEM medium under 5% CO2/saturated humidified air at 37 °C. Cells were digested with the mixture of the trypsin (0.25%) and EDTA (0.02%) at logarithmic growth phase and passaged every 3–4 day. […]
All the mice (20 g) were administrated intravenously for 21 days and the tumor volumes were measured every two days. […] Antitumor ratio determined by the tumor volumes is (V − Vt)/V (V is the average tumor volume of the control group, and Vt is the average tumor volume of the treated group). The antitumor ratio by the tumor weights was also calculated as (W − Wt)/W (W is the average tumor weight of the control group, and Wt is the average tumor weight of the treatment group).
The data was analyzed using the statistics software SPSS13.0, which are expressed as mean ± SD. Statistical significance was assessed using the Student t test. […]

Turning to `CC(=O)O[C@H]1C(=O)[C@@]2(C)[C@H]([C@H](OC(=O)c3ccccc3)[C@]3(O)C[C@H](OC(=O)[C@H](O)[C@@H](NC(=O)c4ccccc4)c4ccccc4)C(C)=C1C3(C)C)[C@]1(OC(C)=O)CO[C@@H]1C[C@@H]2O` [Taxol, paclitaxel], the “Tumor weight inhibition rate (inhibition rate of average tumor weight)” value was 44.50%.
